*: point of attachment. Mca = COc1ccc2c(CC(=O)*)cc(=O)oc2c1

In this test the test system is exiguolysin. Kind of test: Km determination of the fluorogenic substrate (Michaelis-Menten). It counts as biochemical, Exiguobacterium oxidotolerans. As to conditions: 25 mM Tris, 2.5 mM CaCl2, pH 7.0; substrate 0-200 µM; exiguolysin 5 units/well. The method, then: The inhibition of protease activity was screened using a 20 × 20 library of N-alpha dipeptide mercaptoamide inhibitors as previously described by Cathcart et al., and the half-maximal inhibitory constant (Ki) values were determined. In order to determine Michaelis–Menten constant, Km, of the fluorogenic substrate, exiguolysin (previously purified by HIC, final concentration 5 units/well) was added to wells of a 96-well black microtitre plate (Nunc); the volume was adjusted to 75 µL in assay buffer (25 mM Tris, 2.5 mM CaCl2, pH 7.0), and fluorogenic substrate (25 µL) was added at concentrations of 0, 1, 10, 25, 50, 100 and 200 µM. Time-dependent hydrolysis of the fluorogenic substrate was measured (excitation/emission […] nm) every 30 s for 30 min. The Km is determined using the Michealis–Menten equation, by plotting the rate of substrate hydrolysis against substrate concentration.

Usually Km stands for the substrate concentration at which the rate is half of its maximum. Consider “Mca-Lys-Pro-Leu-Gly-Leu-Dap-(Dnp)-Ala-Arg-NH2 (Mca-KPLGL-{Dap(Dnp)-Ala-Arg-NH2}) [fluorogenic substrate, fluorogenic matrix metalloprotease (MMP) substrate]”, for which the Km was found to be 14.2 µM.

For the origin of these results see PMC11596557, “Exiguolysin, a Novel Thermolysin (M4) Peptidase from Exiguobacterium oxidotolerans” (Microorganisms, 2024).
